Measured values from ChEMBL document CHEMBL5321233, “Biological activity of 1,2,3-triazole-2-amino-1,4-naphthoquinone derivatives and their evaluation as therapeutic strategy for malaria control” (Eur J Med Chem, 2023).
The source made the active and inactive calls.

Key:
Plasmodium falciparum [1] = experiment: Antimalarial activity against chloroquine-resistant Plasmodium falciparum W2 infected in human erythrocytes assessed as parasite growth inhibition incubated for 48 hrs by geimsa staining based microscopy; assay type: functional, organism-based; conditions: W2, Erythrocyte
HepG2 = experiment: Cytotoxicity against human HepG2 cells incubated for 24 hrs by MTT assay; assay type: functional
[2] = Cytotoxicity against African green monkey Vero cells incubated for 24 hrs by MTT assay; assay type: toxicity, cell-based; conditions: chlorocebus sabaeus
[3] = Selectivity index, ratio of CC50 for human HepG2 cells to IC50 for chloroquine-resistant Plasmodium falciparum W2 infected in human erythrocytes; assay type: toxicity, cell-based; conditions: read-out: Ratio CC50/IC50
[4] = Selectivity index, ratio of CC50 for African green monkey Vero cells to IC50 for chloroquine-resistant Plasmodium falciparum W2 infected in human erythrocytes; assay type: toxicity, cell-based; conditions: read-out: Ratio CC50/IC50
[5] = Octanol-water partition coefficient, logP of the compound; assay type: physicochemical
[6] = Hemolytic activity in human red blood cells assessed as hemoglobin release at 250 to 15.6 uM incubated for 60 mins by spectrophotometry; assay type: toxicity, cell-based, Erythrocyte; conditions: dose 250-15.6 µM, read-out: Activity
[7] = Hemolytic activity in human red blood cells type A assessed as hemoglobin release at 500 to 1000 uM incubated for 60 mins by spectrophotometry; assay type: toxicity, cell-based, Erythrocyte; conditions: dose 500-1000 µM, read-out: Activity
Plasmodium falciparum [8] = experiment: Induction of morphological changes in chloroquine-resistant Plasmodium falciparum W2 at early trophozoite stage assessed as rounded nucleus with degenerative changes by TEM analysis; assay type: functional, organism-based
Plasmodium falciparum [9] = experiment: Induction of morphological changes in chloroquine-resistant Plasmodium falciparum W2 at early trophozoite stage assessed as degenerating organelles by TEM analysis; assay type: functional, organism-based
Plasmodium falciparum [10] = experiment: Induction of morphological changes in chloroquine-resistant Plasmodium falciparum W2 at early trophozoite stage assessed as development-limiting of parasitophorous vacuole membrane by TEM analysis; assay type: functional, organism-based
Plasmodium falciparum [11] = experiment: Induction of morphological changes in chloroquine-resistant Plasmodium falciparum W2 at early trophozoite stage assessed as development-limiting of plasma membrane by TEM analysis; assay type: functional, organism-based
[12] = Acute toxicity in Albino Swiss mouse assessed as animal mortality at 300 mg/kg, po administered as single dose measured after 14 days; assay type: organism-based; conditions: in vivo, 336 h, time 14 day
[13] = Acute toxicity in Albino Swiss mouse assessed as signs of toxicity at 300 mg/kg, po administered as single dose measured after 14 days; assay type: organism-based; conditions: in vivo, 336 h, time 14 day
[14] = Acute toxicity in Albino Swiss mouse assessed as behavioural toxicity at 300 mg/kg, po administered as single dose measured after 14 days; assay type: organism-based; conditions: in vivo, 336 h, time 14 day
[15] = Acute toxicity in Albino Swiss mouse assessed as change in motor function at 300 mg/kg, po administered as single dose measured after 14 days; assay type: organism-based; conditions: in vivo, 336 h, time 14 day
[16] = Acute toxicity in Albino Swiss mouse assessed as change in sensory function at 300 mg/kg, po administered as single dose measured after 14 days; assay type: organism-based; conditions: in vivo, 336 h, time 14 day
[17] = Acute toxicity in Albino Swiss mouse assessed as signs of pallor at 300 mg/kg, po administered as single dose measured after 14 days; assay type: organism-based; conditions: in vivo, 336 h, time 14 day
[18] = Acute toxicity in Albino Swiss mouse assessed as signs of cyanosis at 300 mg/kg, po administered as single dose measured after 14 days; assay type: organism-based; conditions: in vivo, 336 h, time 14 day
[19] = Acute toxicity in Albino Swiss mouse assessed as signs of hyperemia at 300 mg/kg, po administered as single dose measured after 14 days; assay type: organism-based; conditions: in vivo, 336 h, time 14 day
[20] = Acute toxicity in Albino Swiss mouse assessed as change in urination volume at 300 mg/kg, po administered as single dose measured after 14 days; assay type: organism-based; conditions: in vivo, 336 h, time 14 day
[21] = Acute toxicity in Albino Swiss mouse assessed as change in urine color at 300 mg/kg, po administered as single dose measured after 14 days; assay type: organism-based; conditions: in vivo, 336 h, time 14 day
[22] = Acute toxicity in Albino Swiss mouse assessed as change in defecation at 300 mg/kg, po administered as single dose measured after 14 days; assay type: organism-based; conditions: in vivo, 336 h, time 14 day
[23] = Acute toxicity in Albino Swiss mouse assessed as change in diarrhea at 300 mg/kg, po administered as single dose measured after 14 days; assay type: organism-based; conditions: in vivo, 336 h, time 14 day
[24] = Acute toxicity in Albino Swiss mouse assessed as contortions at 300 mg/kg, po administered as single dose measured after 14 days; assay type: organism-based; conditions: in vivo, 336 h, time 14 day
[25] = Acute toxicity in Albino Swiss mouse assessed as escape reaction at 300 mg/kg, po administered as single dose measured after 14 days; assay type: organism-based; conditions: in vivo, 336 h, time 14 day
[26] = Acute toxicity in Albino Swiss mouse assessed as aggressiveness at 300 mg/kg, po administered as single dose measured after 14 days; assay type: organism-based; conditions: in vivo, 336 h, time 14 day
[27] = Acute toxicity in Albino Swiss mouse assessed as change in relative weight of liver at 300 mg/kg, po administered as single dose measured after 14 days; assay type: organism-based; conditions: in vivo, 336 h, time 14 day
[28] = Acute toxicity in Albino Swiss mouse assessed as change in relative weight of kidney at 300 mg/kg, po administered as single dose measured after 14 days; assay type: organism-based; conditions: in vivo, 336 h, time 14 day
[29] = Acute toxicity in Albino Swiss mouse assessed as change in relative weight of spleen at 300 mg/kg, po administered as single dose measured after 14 days; assay type: organism-based; conditions: in vivo, 336 h, time 14 day
Plasmodium berghei [30] = experiment: Antimalarial activity against Plasmodium berghei ANKA infected in Albino Swiss mouse assessed as half-survival time at 30 mg/kg, po administered for 4 consecutive days measured for 30 days (reference value: 16 day); assay type: functional; conditions: time 30 day
[31] = Acute toxicity in Albino Swiss mouse assessed as necrosis of hepatocytes at 300 mg/kg, po administered as single dose measured after 14 days by H and E staining based analysis; assay type: organism-based; conditions: in vivo, 336 h, time 14 day
[32] = Acute toxicity in Albino Swiss mouse assessed as acidophilic cytoplasm with macro-vacuoles in liver at 300 mg/kg, po administered as single dose measured after 14 days by H and E staining based analysis; assay type: organism-based; conditions: in vivo, 336 h, time 14 day
[33] = Acute toxicity in Albino Swiss mouse assessed as acidophilic cytoplasm with micro-steatosis in liver at 300 mg/kg, po administered as single dose measured after 14 days by H and E staining based analysis; assay type: organism-based; conditions: in vivo, 336 h, time 14 day
[34] = Acute toxicity in Albino Swiss mouse assessed as granular degeneration in liver at 300 mg/kg, po administered as single dose measured after 14 days by H and E staining based analysis; assay type: organism-based; conditions: in vivo, 336 h, time 14 day
[35] = Acute toxicity in Albino Swiss mouse assessed as congestion of globular center vein in liver at 300 mg/kg, po administered as single dose measured after 14 days by H and E staining based analysis; assay type: organism-based; conditions: in vivo, 336 h, time 14 day
[36] = Acute toxicity in Albino Swiss mouse assessed as congestion of hepatic portal vein in liver at 300 mg/kg, po administered as single dose measured after 14 days by H and E staining based analysis; assay type: organism-based; conditions: in vivo, 336 h, time 14 day
[37] = Acute toxicity in Albino Swiss mouse assessed as atrophic glomerulus with congested capillaries in kidney at 300 mg/kg, po administered as single dose measured after 14 days by H and E staining based analysis; assay type: organism-based; conditions: in vivo, 336 h, time 14 day
[38] = Acute toxicity in Albino Swiss mouse assessed as mesangial cells reduction in kidney at 300 mg/kg, po administered as single dose measured after 14 days by H and E staining based analysis; assay type: organism-based; conditions: in vivo, 336 h, time 14 day
[39] = Acute toxicity in Albino Swiss mouse assessed as podocytes with discrete thickening of basal membrane in kidney at 300 mg/kg, po administered as single dose measured after 14 days by H and E staining based analysis; assay type: organism-based; conditions: in vivo, 336 h, time 14 day
[40] = Acute toxicity in Albino Swiss mouse assessed as recurrent tubules with loss of polarity in kidney at 300 mg/kg, po administered as single dose measured after 14 days by H and E staining based analysis; assay type: organism-based; conditions: in vivo, 336 h, time 14 day
[41] = Acute toxicity in Albino Swiss mouse assessed as hyperplasia in spleen at 300 mg/kg, po administered as single dose measured after 14 days by H and E staining based analysis; assay type: organism-based; conditions: in vivo, 336 h, time 14 day
[42] = Acute toxicity in Albino Swiss mouse assessed as fusion of lymphoid follicles in spleen at 300 mg/kg, po administered as single dose measured after 14 days by H and E staining based analysis; assay type: organism-based; conditions: in vivo, 336 h, time 14 day
[43] = Acute toxicity in Albino Swiss mouse assessed as developmment-delimiting germinal center in spleen at 300 mg/kg, po administered as single dose measured after 14 days by H and E staining based analysis; assay type: organism-based; conditions: in vivo, 336 h, time 14 day
[44] = Acute toxicity in Albino Swiss mouse assessed as activated macrophages in spleen at 300 mg/kg, po administered as single dose measured after 14 days by H and E staining based analysis; assay type: organism-based; conditions: in vivo, 336 h, time 14 day
[45] = Acute toxicity in Albino Swiss mouse assessed as distribution of hemosiderophages in parenchyma of spleen at 300 mg/kg, po administered as single dose measured after 14 days by H and E staining based analysis; assay type: organism-based; conditions: in vivo, 336 h, time 14 day
Plasmodium berghei [46] = experiment: Antimalarial activity against Plasmodium berghei ANKA infected in Albino Swiss mouse assessed as reduction in parasitemia at 30 mg/kg, po administered for 4 consecutive days measured after day 5 relative to control; assay type: functional; design: scale not given: the % may be the effect or the level left; conditions: time 5 day
Plasmodium berghei [47] = experiment: Antimalarial activity against Plasmodium berghei ANKA infected in Albino Swiss mouse assessed as reduction in parasitemia at 30 mg/kg, po administered for 4 consecutive days measured after day 7 relative to control; assay type: functional; design: scale not given: the % may be the effect or the level left; conditions: time 7 day
[48] = Toxicity in Albino Swiss mouse infected with Plasmodium berghei ANKA assessed as animal survival at 30 mg/kg, po administered for 4 consecutive days measured for 14 days relative to control; assay type: organism-based; conditions: in vivo, time 14 day
Plasmodium falciparum [49] = experiment: Induction of morphological changes in chloroquine-resistant Plasmodium falciparum W2 trophozoites assessed as degraded cytoplasm by TEM analysis; assay type: functional, organism-based
Plasmodium berghei [50] = experiment: Antimalarial activity against Plasmodium berghei ANKA infected in Albino Swiss mouse assessed as half-survival time at 15 mg/kg, po administered for 4 consecutive days measured for 30 days (reference value: 16 day); assay type: functional; conditions: time 30 day
Plasmodium berghei [51] = experiment: Antimalarial activity against Plasmodium berghei ANKA infected in Albino Swiss mouse assessed as reduction in parasitemia at 15 mg/kg, po administered for 4 consecutive days measured after day 5 relative to control; assay type: functional; design: scale not given: the % may be the effect or the level left; conditions: time 5 day
Plasmodium berghei [52] = experiment: Antimalarial activity against Plasmodium berghei ANKA infected in Albino Swiss mouse assessed as reduction in parasitemia at 15 mg/kg, po administered for 4 consecutive days measured after day 7 relative to control; assay type: functional; design: scale not given: the % may be the effect or the level left; conditions: time 7 day
[53] = Toxicity in Albino Swiss mouse infected with Plasmodium berghei ANKA assessed as mortality rate at 15 to 30 mg/kg, po administered for 4 consecutive days measured for 14 days relative to control; assay type: organism-based; conditions: in vivo, dose 15-30 mg/kg, time 14 day, read-out: Activity

O=C1C=C(NCCn2cc(C3(O)CCCCC3)nn2)C(=O)c2ccccc21
Toxic: Activity [31] | Activity [32] | Activity [33] | Activity [34] | Activity [35] | Activity [36] | Activity [37] | Activity [38] | Activity [39] | Activity [40] | Activity [41] | Activity [42] | Activity [43] | Activity [44] | Activity [45]
2.55: logP [5]
< 40%: hemolysis at 1 h [6]
> 40%: hemolysis at 1 h, up to 1000 µM [7]
38.5 days: Survival (Plasmodium berghei [30])
1340 µM: CC50 at 24 h [2]
163: selectivity ratio [3]
Non-Toxic: Activity [12] | Activity [13] | Activity [14] | Activity [15] | Activity [16] | Activity [17] | Activity [18] | Activity [19] | Activity [20] | Activity [21] | Activity [22] | Activity [23] | Activity [24] | Activity [25] | Activity [26] | Activity [27] | Activity [28] | Activity [29]
2.7 µM: IC50 (Plasmodium falciparum [1])
495: selectivity ratio [4]
441 µM: CC50 (HepG2)
100%: survival at 336 h [48]
38.5%: Activity (Plasmodium berghei [46])
35%: Activity (Plasmodium berghei [47])
active: Activity (Plasmodium falciparum [8]) | Activity (Plasmodium falciparum [9]) | Activity (Plasmodium falciparum [10]) | Activity (Plasmodium falciparum [11])

CCN(CC)CCCC(C)Nc1ccnc2cc(Cl)ccc12 (stereo unspecified) [CHLOROQUINE]
Non-Toxic: Activity [13] | Activity [14] | Activity [15] | Activity [16] | Activity [17] | Activity [18] | Activity [19] | Activity [20] | Activity [21] | Activity [22] | Activity [23] | Activity [24] | Activity [25] | Activity [26] | Activity [27] | Activity [28] | Activity [29]
92%: Activity (Plasmodium berghei [52])
98%: Activity (Plasmodium berghei [47])
20%: mortality at 336 h [53]
active: Activity (Plasmodium falciparum [49])
95%: Activity (Plasmodium berghei [51])
35.8 µM: CC50 at 24 h [2]
99%: Activity (Plasmodium berghei [46])
26 days: Survival (Plasmodium berghei [50]) | Survival (Plasmodium berghei [30])
> 200 µM: CC50 (HepG2)
